According to US9238658B2, “Substituted piperidinyl-carboxamide derivatives useful as SCD 1 inhibitors” (Janssen Pharmaceutica NV, priority 2011, dated 2016):
pIC50: −log10 of the molar value. “And” between values parts separate entries of the source, which are not always exact repeats. Identical values can stand only once.

Columns and labels:
SCD1 [1] = molecular target: SCD1 (Rattus norvegicus (Rat), UniProt P07308); assay: SCD1 enzymatic assay in rat liver microsomes (RLM); type: biochemical
Experimental: Step 1: Preparation of Rat Liver Microsome (RLM)
Sprague Dawley rats from Charles River (200-225 g) underwent 2-cycle of fast-re-feeding (24-hour fast followed by 24-hour feeding with fat-free high carbohydrate diet, Research Diet, D00042802). The livers were removed and homogenized 1:4 (w/v) with pre-chilled, homogenizing buffer (10 mM Tris-HCl, 0.25 M sucrose, 1 mM EDTA, pH 7.4, supplemented with protease inhibitor cocktail). The homogenate was spun at 12,000×g for 15 min at 4° C. The supernatant was then re-centrifuged at 100,000×g for 60 min at 4° C. The pellet was re-suspended in 2 ml pre-chilled […] potassium phosphate buffer, pH 7.2, 10 mM EDTA at a concentration of 20 mg/ml. The resulting rat liver microsome (RLM) preparation was stored at […].
Step 2: SCD1 Enzymatic Assay in RLM:
The SCD1 enzymatic assay was done in a volume of 50 μL using 10 μg of RLM (prepared as described above) in a 96-well polypropylene plate (enzyme reaction buffer contains 0.1 M K-Phosphate Buffer, 10 mM ATP, 6 mM MgCl2, 1 mM CoA, 1 mM β-NADH, 1.6 mM L-glutathione, 20 μM Stearoyl-CoA). Stearoyl-[9,10-^3H]—CoA (ARC-0390, 1 mCi/mL, 60 Ci/mmol,) was added at a final concentration of 2 μCi/mL. Test compound was then added to the reaction mixture at the selected concentration. After incubation at room temperature for 2 hours, 5 μL 1 N HCl was added to stop the reaction, followed by addition of 25 μL of 10% charcoal. The reaction mixture was then transferred to 96-well Multiscreen plate (Millipore, Cat# MSFCN6B50). [^3H2O] was collected into Opti-plate (PE, Cat #6005290) by centrifuge, at 1,000 rpm for 2 minutes. 150 μL Microscint 40 (PE, cat #6013641) was then added to each well and counted on Topcount for [^3H] counts per minute (cpm). The measured cpm values were fitted with Sigmoidal dose-response curve fit with Graphpad Prism.

SCD1 [2] = molecular target: SCD1 (Homo sapiens (Human), UniProt O00767); assay: SCD1 13C-palmitic acid assay in A431 cells; type: cell-based; settings: read-out: A431 cells 13C-PA IC50
Experimental: Human epithelial carcinoma A431 cells were seeded at 100,000 cells/well in complete growth medium (DMEM, Cellgro #10-013-CM, 4.5 g/L glucose, 10% FBS) in the presence of 0.05 mg/mL human insulin (Hannas Pharmaceutical Supply Co Inc, Humanlin 100 U/ml, 4 mg/ml) in 96-well tissue culture plate. […] The cells were then returned to the tissue culture incubator (37° C. and 5% CO2) for 4 hrs. At the end of incubation, the cells were washed three times with 200 μL/well Hanks buffer (HBSS) and then stored at −20° C. until extraction.
For fatty acid extraction, after thawing out the plates, 40 μL of 1N KOH (containing 5 μM of internal standard 7,7,8,8-D4 palmitate) was added to each well and cell plates were incubated at 37° C. for 30 minutes. […] Acetonitrile (100 μL) was then added to extract fatty acids, followed by centrifugation at 3000 rpm for 10 minutes. 75 μL of extract was then transferred to a new glass vial in a 96-well cluster plate. 5 μL was injected for LC/MS analysis for detection of ^13C-palmitic acid and ^13C-palmitoleic acid. Formation of product ^13C-palmitoleic acid was determined as an index of SCD1 activity.
LC/MS analysis was performed as following. An Agilent 1100 Liquid Chromatographic System (Palo Alto, Calif.) consisting of a binary pump, a degasser and an autosampler was used. Separation of free fatty acids was performed on a Zorbax SB—C8 column (2.1×50 mm, particle size=3.5 μm). An isocratic elution was carried out with 10 mM triethylamine acetate in water:acetonitrile (3:7) at a flow rate of 0.3 mL/min. The column temperature was set at 30° C. and the sample injection volume was 5 μL. The LC run cycle was 4 min, A Micromass triple-quadrupole Quattro Micro mass […] (Waters, Beverly, Mass.) was interfaced with the LC system through a Z-spray electrospray ion source and was operated in the negative ion mode. Nitrogen was used as nebulizing gas, desolvation gas and cone curtain gas and argon was chosen as collision gas. The triple quadrupole MS source parameters were set as follows: capillary voltage, 3200V; cone voltage, 25V; extractor 2V, source temperature, 120° C.; desolvation temperature, 300° C.; cone gas flow, 50 L/h; and desolvation gas flow, 700 L/h. […] MassLynx software version 4.0 was used for system control and data processing. The signal of U—^13C-palmitoleic acid was normalized to an internal standard.

SCD1 (Rattus norvegicus (Rat), UniProt P07308), sequence (P07308 whole entry): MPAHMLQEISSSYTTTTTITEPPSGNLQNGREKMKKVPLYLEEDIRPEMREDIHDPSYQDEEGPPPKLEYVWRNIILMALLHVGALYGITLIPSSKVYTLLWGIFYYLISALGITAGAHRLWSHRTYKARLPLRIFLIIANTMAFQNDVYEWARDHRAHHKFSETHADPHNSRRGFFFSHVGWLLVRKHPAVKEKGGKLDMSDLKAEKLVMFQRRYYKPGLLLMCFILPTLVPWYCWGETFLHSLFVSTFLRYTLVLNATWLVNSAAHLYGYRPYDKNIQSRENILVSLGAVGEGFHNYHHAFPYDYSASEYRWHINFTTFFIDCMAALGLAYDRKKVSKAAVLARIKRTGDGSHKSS
SCD1 (Homo sapiens (Human), UniProt O00767), sequence (O00767 whole entry): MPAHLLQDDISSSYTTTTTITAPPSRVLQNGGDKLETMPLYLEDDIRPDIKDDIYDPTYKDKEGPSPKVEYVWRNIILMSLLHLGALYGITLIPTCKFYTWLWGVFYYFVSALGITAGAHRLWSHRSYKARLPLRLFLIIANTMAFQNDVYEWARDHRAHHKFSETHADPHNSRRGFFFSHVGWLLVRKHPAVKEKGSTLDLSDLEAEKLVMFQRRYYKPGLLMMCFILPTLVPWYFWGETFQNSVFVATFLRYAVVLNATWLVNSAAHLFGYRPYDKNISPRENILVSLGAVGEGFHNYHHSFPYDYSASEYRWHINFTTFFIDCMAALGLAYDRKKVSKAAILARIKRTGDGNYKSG

SMILES | pIC50 (SCD1 [1]) | inhibition at 1 µM (SCD1 [1]; 1 μM test compound) [%] | pIC50 (SCD1 [2]) | % Inh. @ 1 μM (SCD1 [1]; 1 μM test compound) [%]
Cc1cnc(NC(=O)N2CCC(c3noc4ccc(F)cc34)CC2)s1 [Compound 14, 4-(5-fluorobenzo[d]isoxazol-3-yl)-N-(5-methylthiazol-2-yl)piperidine-1-carboxamide] | 6.52 | 86 | 6.77 | –
NC(=O)c1cccc(NC(=O)N2CCC(c3noc4ccc(F)cc34)CC2)c1 [Compound 17, N-(3-carbamoylphenyl)-4-(5-fluorobenzo[d]isoxazol-3-yl)piperidine-1-carboxamide] | 6.68 | 84 | 6.56 | –
COC(=O)c1cnc(NC(=O)N2CCC(N3CCc4ccc(F)cc43)CC2)s1 [Compound 18, methyl 2-(4-(6-fluoroindolin-1-yl)piperidine-1-carboxamido)thiazole-5-carboxylate] | 6.44 | 62 | 6.66 | –
CNC(=O)c1cnc(NC(=O)N2CCC(N3CCc4ccc(F)cc43)CC2)s1 [Compound 19, 2-(4-(6-fluoroindolin-1-yl)piperidine-1-carboxamido)-N-methylthiazole-5-carboxamide] | 7.03 | 94 | 6.69 | –
Cc1csc(NC(=O)N2CCC(N3CCc4ccc(F)cc43)CC2)n1 [Compound 20, 4-(6-fluoroindolin-1-yl)-N-(4-methylthiazol-2-yl)piperidine-1-carboxamide] | 7.59 | 98 | 7.68 | –
CCOC(=O)Cc1csc(NC(=O)N2CCC(N3CCc4ccc(F)cc43)CC2)n1 [Compound 27, ethyl 2-(2-(4-(6-fluoroindolin-1-yl)piperidine-1-carboxamido)thiazol-4-yl)acetate] | 6.54 | 80 | < 6.00 | –
O=C(Nc1nc2c(s1)CC(O)CC2)N1CCC(N2CCc3ccc(F)cc32)CC1 (stereo not shown) [Compound 33, 4-(6-fluoroindolin-1-yl)-N-(6-hydroxy-4,5,6,7-tetrahydrobenzo[d]thiazol-2-yl)piperidine-1-carboxamide] | 8.15 and 7.70 | 97 | > 9.00 and 9.00 | 99

Further compounds by rising pIC50 (SCD1 [1]), results first:

pIC50 (SCD1 [1]) | inhibition at 1 µM (SCD1 [1]; 1 μM test compound) [%] | pIC50 (SCD1 [2]) | % Inh. @ 1 μM (SCD1 [1]; 1 μM test compound) [%] | SMILES
7.06 | 97 | 6.81 | – | O=C(Nc1ncc(CO)s1)N1CCC(N2CCc3ccc(F)cc32)CC1 [Compound 24, 4-(6-fluoroindolin-1-yl)-N-(5-(hydroxymethyl)thiazol-2-yl)piperidine-1-carboxamide]
7.09 | 83 | 6.97 | – | Cc1cnc(NC(=O)N2CCC(N3CCc4ccc(F)cc43)CC2)s1 [Compound 21, 4-(6-fluoroindolin-1-yl)-N-(5-methylthiazol-2-yl)piperidine-1-carboxamide]
7.28 | 94 | 7.38 | – | O=C(Nc1nc(CO)cs1)N1CCC(N2CCc3ccc(F)cc32)CC1 [Compound 25, 4-(6-fluoroindolin-1-yl)-N-(4-(hydroxymethyl)thiazol-2-yl)piperidine-1-carboxamide]
7.66 | 101 | 7.31 | – | NC(=O)c1cnc(NC(=O)N2CCC(N3CCc4ccc(F)cc43)CC2)s1 [Compound 15, 2-(4-(6-fluoroindolin-1-yl)piperidine-1-carboxamido)thiazole-5-carboxamide]
7.70 | 96 | 7.03 | – | NC(=O)c1cccc(NC(=O)N2CCC(N3CCc4ccc(F)cc43)CC2)c1 [Compound 16, N-(3-carbamoylphenyl)-4-(6-fluoroindolin-1-yl)piperidine-1-carboxamide]
7.70 | 94 | 7.74 | – | O=C(Nc1nc(CCO)cs1)N1CCC(N2CCc3ccc(F)cc32)CC1 [Compound 29, 4-(6-fluoroindolin-1-yl)-N-(4-(2-hydroxyethyl)thiazol-2-yl)piperidine-1-carboxamide]
